Reference: patent US9364479B2, “Use of a receptor-type kinase modulator for treating polycystic kidney disease” (SYMPHONY EVOLUTION, INC., priority 2010, dated 2016)

Experiments:
NOS (Neuronal-Binding) = molecular target: T1, NOS (Neuronal-Binding) (Homo sapiens, UniProt P29475); assay: NovaScreen assay; conditions: read-out: Inhibition, 10 μM XL-647
T1 construct: NovaScreen

[1] = human, in vivo
[2] = molecular target: T2, Cholecystokinin, CCK1 (CCKA) (Homo sapiens, UniProt P32238); assay: NovaScreen assay; assay type: binding; conditions: read-out: Inhibition, 10 μM XL-647
T2 construct: NovaScreen

[3] = test system: MDA-MB-231 human tumor xenograft; assay: MDA-MB-231 xenograft, tumor growth; assay type: in vivo; conditions: Mus musculus
Method: Before treatment, H1975, A431, or MDA-MB-231 cells were harvested from exponentially growing cultures, detached by brief trypsinization, washed twice in cold HBSS, resuspended in ice-cold HBSS, and implanted either s.c. (H1975, 3×10^6 cells per mouse) or i.d. (A431, 1×10^6 cells per mouse) into the dorsal hind flank or s.c. into the mammary fat pad (MDA-MB-231, 1×10^6 cells per mouse). Palpable tumors were measured by caliper twice weekly until the mean tumor weight was in the range of ˜80 to 120 mg. Tumor weight was determined by measuring perpendicular diameters with a caliper and multiplying the measurements of diameters in two dimensions: tumor volume (mm^3)/2=length (mm)×width (mm^2)/2. […] The mean tumor weight of each animal in the respective control and treatment groups was determined twice weekly during the dosing periods. […]
The response of tumors to treatment was determined by comparing the mean tumor weight of the treatment group with the appropriate control group. Percentage inhibition of tumor growth was determined with the following formula: Percentage inhibition=100×[1−(Xf−Xo)/(Yf−Yo)], where Xf and Yf are the mean tumor weights of the treatment and control groups, respectively, on day f, and Xo and Yo are the mean tumor weights of treatment and control groups respectively, on day zero (staged tumor weights after grouping)

EphB4 = molecular target: T3, EphB4 (Homo sapiens, UniProt P54760); assay: Radiometric 33P-phosphoryl transfer kinase assay; assay type: biochemical; conditions: ATP at Km
T3 construct: residues E605-E890 of human EphB4 containing a six histidine NH2-terminal tag; His6 (N); made in house; host or cells: baculovirus expression system
T3 sequence (P54760 605-890): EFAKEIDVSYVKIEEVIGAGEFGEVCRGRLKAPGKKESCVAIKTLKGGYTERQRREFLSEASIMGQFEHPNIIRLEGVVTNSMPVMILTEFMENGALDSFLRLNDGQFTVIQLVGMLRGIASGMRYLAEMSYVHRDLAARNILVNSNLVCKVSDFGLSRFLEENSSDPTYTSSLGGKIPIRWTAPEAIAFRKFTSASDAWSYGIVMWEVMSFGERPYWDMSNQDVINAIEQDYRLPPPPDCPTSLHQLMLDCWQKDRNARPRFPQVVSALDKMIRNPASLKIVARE
Method: (§1) Dose-response experiments were done using 10 different inhibitor concentrations in 384-well microtiter plates. The ATP concentration used for each assay was equivalent to the Km for each kinase. IC50 values were calculated by nonlinear regression analysis using the four-variable equation: Y=min+(max−min)/[1+([I]/IC50)N], where Y is the observed signal, [I] is the inhibitor concentration, min is the background signal in the absence of enzyme (0% enzyme activity), max is the signal in the absence of inhibitor (100% enzyme activity), IC50 is the inhibitor concentration required at 50% enzyme inhibition, and N represents the empirical Hill slope as a measure of cooperativity.
(§2) A radiometric ^33P-Phosphoryl transfer kinase assay was used to measure EphB4, insulin-like growth factor-I receptor (IGFR-1), and insulin receptor (IRK) activity. Reactions were performed in 384-well white, clear bottom, high-binding microtiter plates (Greiner). Plates were coated with 2 μg/well peptide substrate in a 50 μL volume. […] The coated plates were washed once with 50 μL assay buffer following overnight incubation at room temperature. Test compound and either 5 nmol/L EphB4 (residues E605-E890 of human EphB4 containing a six histidine NH2-terminal tag, expressed in a baculovirus expression system and purified using metal chelate chromatography), 4 nmol/L insulin-like growth factor-I receptor (residues M954-C1367 of human insulin-like growth factor-I receptor, Proqinase GmbH), or 15 nmol/L insulin receptor 1 (residues P948-S1343 of human insulin receptor 1, Proqinase) were combined with [^33P]g-ATP (5 μmol/L, 3.3 μCi/nmol) in a total volume of 20 μL. The reaction mixture was incubated at room temperature for 1.5 to 2.5 h and terminated by aspiration. The microtiter plates were subsequently washed six times with 0.05% Tween-PBS buffer. Scintillation fluid (50 μL/well) was added and incorporated ^33P was measured by liquid scintillation spectrometry using a MicroBeta scintillation counter (Perkin-Elmer).

IGF1R = molecular target: T4, IGF1R (Homo sapiens, UniProt P08069); assay: Radiometric 33P-phosphoryl transfer kinase assay; assay type: biochemical; conditions: ATP at Km
T4 construct: residues M954-C1367 of human insulin-like growth factor-I receptor, Proqinase GmbH; purchased Proqinase GmbH
Method: as §1, §2

InsR = molecular target: T5, InsR (Homo sapiens, UniProt P06213); assay: Radiometric 33P-phosphoryl transfer kinase assay; assay type: biochemical; conditions: ATP at Km
T5 construct: residues P948-S1343 of human insulin receptor 1, Proqinase; purchased Proqinase
T5 sequence (P06213 987-1382): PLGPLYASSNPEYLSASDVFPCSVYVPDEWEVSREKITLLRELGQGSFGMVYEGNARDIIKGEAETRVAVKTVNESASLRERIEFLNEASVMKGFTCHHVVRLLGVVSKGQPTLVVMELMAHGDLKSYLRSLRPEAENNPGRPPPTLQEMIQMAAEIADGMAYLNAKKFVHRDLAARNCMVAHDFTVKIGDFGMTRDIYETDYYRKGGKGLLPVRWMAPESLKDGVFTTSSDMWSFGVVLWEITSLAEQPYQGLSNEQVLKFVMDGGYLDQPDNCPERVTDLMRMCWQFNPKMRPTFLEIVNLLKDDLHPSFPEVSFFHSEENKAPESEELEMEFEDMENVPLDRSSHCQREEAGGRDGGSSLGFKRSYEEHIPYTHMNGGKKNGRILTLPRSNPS
Method: as §1, §2

Blk = Blk (Homo sapiens, UniProt P51451); assay: In vitro kinase inhibition screen; assay type: biochemical
Method: (§3) Further screening was performed using the biochemical assay methods of Example 2. Additional description of the components and concentrations are summarized in Table 8, Table 9, and Table 10, below.

MAPK2 = MAPK2 (Homo sapiens, UniProt P28482); assay: In vitro kinase inhibition screen; assay type: biochemical
Method: as §3

ROCK II = ROCK II (Homo sapiens, UniProt O75116); assay: In vitro kinase inhibition screen; assay type: biochemical
Chain of ROCK II (O75116 whole entry): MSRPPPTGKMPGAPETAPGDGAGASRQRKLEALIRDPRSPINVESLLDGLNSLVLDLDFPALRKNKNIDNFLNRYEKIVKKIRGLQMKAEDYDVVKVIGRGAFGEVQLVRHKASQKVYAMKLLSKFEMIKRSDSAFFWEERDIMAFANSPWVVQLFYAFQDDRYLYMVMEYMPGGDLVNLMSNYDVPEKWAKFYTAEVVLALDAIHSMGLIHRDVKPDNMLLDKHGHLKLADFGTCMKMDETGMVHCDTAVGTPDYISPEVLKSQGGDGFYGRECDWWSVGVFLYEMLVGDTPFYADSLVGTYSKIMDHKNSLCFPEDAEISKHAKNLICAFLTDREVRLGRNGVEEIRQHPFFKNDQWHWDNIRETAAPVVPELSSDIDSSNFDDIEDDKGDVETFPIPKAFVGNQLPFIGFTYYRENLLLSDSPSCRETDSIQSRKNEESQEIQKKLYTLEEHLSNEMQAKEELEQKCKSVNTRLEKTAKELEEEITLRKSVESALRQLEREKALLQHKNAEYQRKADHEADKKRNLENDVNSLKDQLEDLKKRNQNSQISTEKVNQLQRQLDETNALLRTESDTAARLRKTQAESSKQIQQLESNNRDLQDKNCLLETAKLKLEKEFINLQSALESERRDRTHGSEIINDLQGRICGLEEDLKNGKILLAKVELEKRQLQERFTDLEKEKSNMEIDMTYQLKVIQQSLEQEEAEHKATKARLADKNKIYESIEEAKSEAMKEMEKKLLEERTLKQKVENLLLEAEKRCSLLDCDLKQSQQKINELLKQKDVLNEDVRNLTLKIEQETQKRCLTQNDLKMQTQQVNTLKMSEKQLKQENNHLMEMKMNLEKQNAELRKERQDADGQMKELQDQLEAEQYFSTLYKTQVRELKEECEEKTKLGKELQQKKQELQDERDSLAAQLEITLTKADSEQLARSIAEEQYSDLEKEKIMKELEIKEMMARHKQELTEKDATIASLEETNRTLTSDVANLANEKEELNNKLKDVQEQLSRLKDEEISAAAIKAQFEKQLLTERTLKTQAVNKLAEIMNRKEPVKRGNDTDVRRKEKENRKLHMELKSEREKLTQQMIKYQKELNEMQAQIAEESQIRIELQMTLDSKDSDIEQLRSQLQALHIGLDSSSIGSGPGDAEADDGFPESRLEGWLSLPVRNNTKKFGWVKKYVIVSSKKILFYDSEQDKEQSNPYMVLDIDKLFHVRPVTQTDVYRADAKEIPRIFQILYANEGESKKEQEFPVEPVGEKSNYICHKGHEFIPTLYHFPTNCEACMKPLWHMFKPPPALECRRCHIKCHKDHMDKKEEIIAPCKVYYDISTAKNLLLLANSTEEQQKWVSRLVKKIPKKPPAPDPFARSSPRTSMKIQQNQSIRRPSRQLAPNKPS
Method: as §3

MAPK1 = MAPK1 (Homo sapiens, UniProt P27361); assay: In vitro kinase inhibition screen; assay type: biochemical
Method: as §3

PRAK = PRAK (Homo sapiens, UniProt Q8IW41); assay: In vitro kinase inhibition screen; assay type: biochemical
Method: as §3

PDGFR-α = PDGFR-α (Homo sapiens, UniProt P16234); assay: In vitro kinase inhibition screen; assay type: biochemical
Chain of PDGFR-α (P16234 24-1089, species assumed): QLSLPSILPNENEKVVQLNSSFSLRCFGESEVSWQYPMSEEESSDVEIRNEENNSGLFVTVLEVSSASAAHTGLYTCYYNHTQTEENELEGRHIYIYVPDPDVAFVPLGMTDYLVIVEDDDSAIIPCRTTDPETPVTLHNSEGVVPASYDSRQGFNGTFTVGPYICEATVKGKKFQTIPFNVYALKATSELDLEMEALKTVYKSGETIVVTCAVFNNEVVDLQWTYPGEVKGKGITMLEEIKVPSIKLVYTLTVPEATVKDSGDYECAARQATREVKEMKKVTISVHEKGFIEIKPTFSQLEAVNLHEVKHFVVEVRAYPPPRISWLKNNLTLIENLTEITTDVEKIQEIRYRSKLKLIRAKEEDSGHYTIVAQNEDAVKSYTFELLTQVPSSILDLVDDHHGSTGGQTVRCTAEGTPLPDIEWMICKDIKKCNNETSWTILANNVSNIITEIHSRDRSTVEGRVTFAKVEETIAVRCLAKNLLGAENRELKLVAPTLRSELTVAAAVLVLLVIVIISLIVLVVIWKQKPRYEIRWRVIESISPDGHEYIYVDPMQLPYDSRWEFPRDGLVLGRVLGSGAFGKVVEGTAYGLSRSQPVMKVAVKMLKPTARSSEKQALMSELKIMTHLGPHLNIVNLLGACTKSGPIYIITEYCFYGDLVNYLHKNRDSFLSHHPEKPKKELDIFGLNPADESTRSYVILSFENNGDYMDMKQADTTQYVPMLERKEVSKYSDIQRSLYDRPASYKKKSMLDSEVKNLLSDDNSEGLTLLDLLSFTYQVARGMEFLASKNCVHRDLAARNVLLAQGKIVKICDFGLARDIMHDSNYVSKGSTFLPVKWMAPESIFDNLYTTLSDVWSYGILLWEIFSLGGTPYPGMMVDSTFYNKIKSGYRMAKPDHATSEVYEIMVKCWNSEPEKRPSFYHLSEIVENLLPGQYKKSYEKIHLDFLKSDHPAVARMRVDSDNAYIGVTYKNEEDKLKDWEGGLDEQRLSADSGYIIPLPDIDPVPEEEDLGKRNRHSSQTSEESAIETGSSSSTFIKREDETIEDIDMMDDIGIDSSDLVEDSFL
Method: as §3

[4] = In vitro kinase inhibition screen; assay type: biochemical
Method: as §3

PKBβ = PKBβ (Homo sapiens, UniProt P31751); assay: In vitro kinase inhibition screen; assay type: biochemical
Chain of PKBβ (P31751 whole entry, species assumed): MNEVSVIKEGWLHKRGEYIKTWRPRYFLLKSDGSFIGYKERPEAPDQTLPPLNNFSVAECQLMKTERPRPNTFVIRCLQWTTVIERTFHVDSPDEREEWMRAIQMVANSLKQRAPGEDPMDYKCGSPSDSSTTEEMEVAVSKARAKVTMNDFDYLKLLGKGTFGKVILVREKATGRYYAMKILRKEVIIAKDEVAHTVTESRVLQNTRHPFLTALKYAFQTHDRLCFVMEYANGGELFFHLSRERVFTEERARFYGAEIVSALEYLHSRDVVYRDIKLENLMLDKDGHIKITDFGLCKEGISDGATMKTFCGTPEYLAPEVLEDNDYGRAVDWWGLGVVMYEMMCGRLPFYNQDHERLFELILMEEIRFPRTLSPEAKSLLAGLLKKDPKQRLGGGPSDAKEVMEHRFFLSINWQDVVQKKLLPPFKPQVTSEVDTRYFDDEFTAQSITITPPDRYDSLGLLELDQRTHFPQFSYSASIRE
Method: as §3

T1 sequence (P29475 whole entry): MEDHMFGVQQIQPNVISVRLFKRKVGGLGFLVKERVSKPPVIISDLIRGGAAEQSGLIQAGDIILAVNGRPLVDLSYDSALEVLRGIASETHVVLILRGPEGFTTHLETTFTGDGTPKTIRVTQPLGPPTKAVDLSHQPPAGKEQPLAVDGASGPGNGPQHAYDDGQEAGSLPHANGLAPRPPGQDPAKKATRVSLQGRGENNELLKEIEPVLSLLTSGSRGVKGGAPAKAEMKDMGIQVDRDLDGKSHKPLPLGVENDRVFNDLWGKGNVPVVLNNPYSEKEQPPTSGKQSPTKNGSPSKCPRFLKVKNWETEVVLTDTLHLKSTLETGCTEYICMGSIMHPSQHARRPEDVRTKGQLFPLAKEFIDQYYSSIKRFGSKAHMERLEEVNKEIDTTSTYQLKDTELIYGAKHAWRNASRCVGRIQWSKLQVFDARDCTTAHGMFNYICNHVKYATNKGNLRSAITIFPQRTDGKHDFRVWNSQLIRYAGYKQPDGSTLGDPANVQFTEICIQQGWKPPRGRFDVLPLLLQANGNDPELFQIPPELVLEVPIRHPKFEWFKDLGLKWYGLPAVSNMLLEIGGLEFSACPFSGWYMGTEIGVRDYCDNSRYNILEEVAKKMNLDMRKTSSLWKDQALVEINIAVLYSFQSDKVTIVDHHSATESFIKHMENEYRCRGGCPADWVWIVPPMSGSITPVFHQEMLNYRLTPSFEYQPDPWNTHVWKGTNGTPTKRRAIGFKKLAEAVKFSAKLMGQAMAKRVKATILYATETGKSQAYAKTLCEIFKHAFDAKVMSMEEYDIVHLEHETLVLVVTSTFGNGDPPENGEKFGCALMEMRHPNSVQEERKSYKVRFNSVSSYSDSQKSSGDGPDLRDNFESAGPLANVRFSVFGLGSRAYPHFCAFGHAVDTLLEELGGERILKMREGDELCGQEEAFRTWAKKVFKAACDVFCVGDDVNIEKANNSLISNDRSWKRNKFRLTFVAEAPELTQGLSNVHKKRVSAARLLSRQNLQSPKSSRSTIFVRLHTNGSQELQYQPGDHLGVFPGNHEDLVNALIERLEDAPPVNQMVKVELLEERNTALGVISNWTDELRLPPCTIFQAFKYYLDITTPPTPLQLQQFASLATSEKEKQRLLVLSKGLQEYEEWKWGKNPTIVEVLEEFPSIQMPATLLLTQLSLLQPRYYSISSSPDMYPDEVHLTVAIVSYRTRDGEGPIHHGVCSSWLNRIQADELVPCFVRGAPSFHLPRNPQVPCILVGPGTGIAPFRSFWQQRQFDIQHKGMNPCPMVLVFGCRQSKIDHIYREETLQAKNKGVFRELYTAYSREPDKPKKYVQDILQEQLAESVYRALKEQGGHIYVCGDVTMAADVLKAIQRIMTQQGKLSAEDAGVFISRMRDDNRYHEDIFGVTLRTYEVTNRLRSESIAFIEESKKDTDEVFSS

**Q.** Which inhibition at 10 µM (NOS (Neuronal-Binding)) does the source give for COc1cc2c(Nc3ccc(Cl)c(Cl)c3F)ncnc2cc1OC[C@@H]1C[C@@H]2CN(C)C[C@@H]2C1 [XL-647, N-(3,4-dichloro-2-fluorophenyl)-7-({[(3aR,5r,6aS)-2-methyloctahydrocyclopenta[c]pyrrol-5-yl]methyl}oxy)-6-(methyloxy)quinazolin-4-amine] here?
**A.** 16.8%

**Q.** And the “dose proportionality of AUC and Cmax, in words” value [1]?
**A.** generally increased in proportion with dose

**Q.** What about the inhibition at 10 µM [2] of the same compound?
**A.** 47.5%

**Q.** And the ED50 ([3]; MDA-MB-231, qd × 14)?
**A.** 21.9 mg/kg

**Q.** And the ED50 ([3]; MDA-MB-231, qd × 28)?
**A.** 22.9 mg/kg

**Q.** And the IC50 (EphB4)?
**A.** 1.4 ± 0.2 nM

**Q.** What about the IC50 (IGF1R) of the same compound?
**A.** > 10000 nM

**Q.** And the IC50 (InsR)?
**A.** > 26000 nM

**Q.** What about the IC50 (Blk) of the same compound?
**A.** 15 nM

**Q.** What about the IC50 (MAPK2) of the same compound?
**A.** > 1000 nM

**Q.** What about the IC50 (ROCK II) of the same compound?
**A.** > 1000 nM

**Q.** What about the IC50 (MAPK1) of the same compound?
**A.** > 1000 nM

**Q.** What about the IC50 (PRAK) of the same compound?
**A.** > 1000 nM

**Q.** What about the IC50 (PDGFR-α) of the same compound?
**A.** 64.4 ± 7.2 nM

**Q.** And the IC50 [4]?
**A.** > 1000 nM

**Q.** What about the IC50 (PKBβ) of the same compound?
**A.** > 10000 nM
